{"source": "paper PMC9445877", "about": "“Blockade of TMPRSS2-mediated priming of SARS-CoV-2 by lactoferricin” (Frontiers in Immunology, 2022)", "key": {"TMPRSS2": {"target": "T1, TMPRSS2 (Homo sapiens, UniProt O15393)", "T1 construct": "TMPRSS2 (25 nM; recombinant protein produced in mammalian cells; #MBS1193731, MyBioSource, San Diego, CA); purchased MyBioSource, San Diego, CA #MBS1193731; host or cells: mammalian cells", "T1 sequence (O15393 256-492 limits assumed)": "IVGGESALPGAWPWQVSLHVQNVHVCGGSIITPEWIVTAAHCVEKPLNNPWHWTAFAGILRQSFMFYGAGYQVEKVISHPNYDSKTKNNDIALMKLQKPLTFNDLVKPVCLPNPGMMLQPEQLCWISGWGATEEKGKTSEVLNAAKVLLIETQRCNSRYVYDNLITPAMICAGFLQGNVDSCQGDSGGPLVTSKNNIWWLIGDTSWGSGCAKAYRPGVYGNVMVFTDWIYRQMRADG", "T1 sequence (O15393 106-255 limits assumed)": "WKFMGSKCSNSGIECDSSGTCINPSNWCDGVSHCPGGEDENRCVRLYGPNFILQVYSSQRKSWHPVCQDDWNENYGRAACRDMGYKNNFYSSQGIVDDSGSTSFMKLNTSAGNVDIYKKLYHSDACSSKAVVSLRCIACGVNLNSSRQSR", "assay": "In vitro proteolysis assay, TMPRSS2, fluorogenic substrate Boc-Gln-Ala-Arg-AMC", "type": "biochemical", "conditions": "37°C, Boc-Gln-Ala-Arg-AMC; for inhibition of proteolytic activity of TMPRSS2 (in words): Tris-HCl buffer", "protocol": "(§1) Figure 1 Effect of LF and the LF-derived peptides pLF1-pLF3 on the activity of serine proteases. Proteolytic activities of purified TMPRSS2 (A), plasmin (B), elastase (C), and trypsin (D) were measured with or without peptides pLF1, pLF2, pLF3, LF or the control peptide pCTR at 37°C in Tris-HCl buffer using the fluorogenic substrate Boc-Gln-Ala-Arg-AMC. The reaction was monitored using an ELISA reader for the indicated time intervals.\n(§2) The proteolytic activities of plasmin (10 nM; from human plasma; #10602361001, Roche Diagnostics GmbH, Mannheim, Germany), trypsin (10 nM; from bovine pancreas; #T1005, Sigma-Aldrich, St. Louis, MO), elastase (20 nM; from porcine pancreas; #E1250, Sigma-Aldrich) and TMPRSS2 (25 nM; recombinant protein produced in mammalian cells; #MBS1193731, MyBioSource, San Diego, CA) were measured in a Nunc black fluorescence-based cell assay plate (Sigma-Aldrich) in Tris-HCl buffer (20 mM, pH 8.0, 150 mM NaCl). The proteases were incubated with or without inhibitory and control compounds at 37°C for 30 min, and then the fluorogenic substrate (Boc-Gln-Ala-Arg-AMC; 25 µM; #BML-P237, ENZO Life Sciences, Lörrach, Germany) was added. The reaction was measured using an ELISA plate reader (Synergy H1 BioTek microplate reader, Winooski, Vermont, U.S., or TECAN GENios, GMI, USA) under the excitation wavelength of 380 nm and the emission wavelength of 460 nm at the indicated time points."}, "plasmin": {"target": "T2, plasmin (Homo sapiens, UniProt P00747)", "T2 construct": "purchased Roche Diagnostics GmbH, Mannheim, Germany #10602361001; host or cells: human plasma", "T2 sequence (P00747 581-810 limits assumed)": "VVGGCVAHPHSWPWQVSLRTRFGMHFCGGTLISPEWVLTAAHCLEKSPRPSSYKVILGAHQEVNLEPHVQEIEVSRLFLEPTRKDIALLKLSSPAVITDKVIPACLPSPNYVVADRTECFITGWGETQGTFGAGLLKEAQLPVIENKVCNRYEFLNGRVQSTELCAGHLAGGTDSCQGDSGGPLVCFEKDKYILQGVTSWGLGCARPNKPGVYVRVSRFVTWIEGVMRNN", "T2 sequence (P00747 97-580 limits assumed)": "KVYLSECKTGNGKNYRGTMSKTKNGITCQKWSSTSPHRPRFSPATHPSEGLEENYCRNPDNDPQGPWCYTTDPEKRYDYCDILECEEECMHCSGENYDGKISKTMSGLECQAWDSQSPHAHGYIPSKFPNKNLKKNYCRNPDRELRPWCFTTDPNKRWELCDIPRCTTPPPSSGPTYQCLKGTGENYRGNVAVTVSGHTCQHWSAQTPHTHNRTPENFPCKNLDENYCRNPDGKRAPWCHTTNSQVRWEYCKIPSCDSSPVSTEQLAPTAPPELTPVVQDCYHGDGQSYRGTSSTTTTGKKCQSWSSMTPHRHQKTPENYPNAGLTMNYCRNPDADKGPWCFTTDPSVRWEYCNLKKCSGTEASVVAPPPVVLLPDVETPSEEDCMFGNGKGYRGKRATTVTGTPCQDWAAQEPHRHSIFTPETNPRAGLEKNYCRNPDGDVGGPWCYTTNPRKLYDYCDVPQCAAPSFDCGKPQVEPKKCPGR", "assay": "In vitro proteolysis assay, plasmin", "type": "biochemical", "conditions": "37°C; for inhibition of proteolytic activity of plasmin (in words): plasmin 10 nM, Tris-HCl buffer, Boc-Gln-Ala-Arg-AMC", "protocol": "as §1, §2\nOptionally ( Figure 1B , inset), purified active plasmin (10 mU/mL) was coated in PBS directly on a 96-well Falcon transparent plate for 2 h at 37°C. The wells were then blocked with 1% BSA, washed, and then incubated in PBS at 37°C with the chromogenic plasmin substrate S-2251 (0.8 mM, D-Val-Leu-Lys-pNA, CoaChrom Diagnostica). In this case, the absorbance change at 405 nm was monitored at different time points by using an ELISA plate reader (SpectraMax M5, Molecular Devices)."}, "elastase": {"tested_on": "elastase", "assay": "In vitro proteolysis assay, elastase", "type": "biochemical, porcine", "conditions": "elastase 20 nM; 37°C, Tris-HCl buffer, Boc-Gln-Ala-Arg-AMC", "protocol": "as §1\nas §2, with “The proteases were incubated with or without inhibitory and control compounds at 37°C for 30 min, and then the fluorogenic substrate (Boc-Gln-Ala-Arg-AMC; 25 µM; #BML-P237, ENZO Life Sciences, Lörrach, Germany) was added.” left out"}, "[1]": {"tested_on": "SARS-CoV-2 S protein cleavage by TMPRSS2", "assay": "SARS-CoV-2 S protein digestion assay with TMPRSS2 (immunoblot)", "type": "biochemical", "conditions": "S protein 1 µg, TMPRSS2 25 nM, 120 min, 37°C, Tris-HCl 20 mM pH 7.5, 150 mM NaCl, n = 4"}, "[2]": {"tested_on": "SARS-CoV-2 infection, Vero cells", "type": "cell-based, SARS-CoV-2 (African green monkey cells)", "conditions": "n = 3"}, "Vero cells": {"tested_on": "Vero cells", "assay": "Cytotoxicity assay in Vero cells (EZ4U)", "type": "cell-based, African green monkey", "conditions": "48 h, without virus, 20 and 40 µg/mL, DMEM/2% FCS, 3 experiments, 80% viability cut-off", "protocol": "Vero cells were seeded into 96-well flat-bottom plates (1×10^4 cells, 80 µl/well) in DMEM medium supplemented with 10% FCS, antibiotics, and non-essential amino acids. On the day of the assay, the medium was exchanged for the reduced serum supplemented DMEM (DMEM/2% FCS) with the peptides or a vehicle only at the designated concentration (100 µl/well). As a positive control, 30% DMSO in DMEM/2% FCS was used. Negative control cells were incubated in DMEM/2% FCS only. Two days (48 h) later, cell viability was assessed as we did previously ([52]) using the EZ4U cell proliferation and cytotoxicity assay substrate (Biomedica Immunoassays, Vienna, Austria)."}, "SARS-CoV-2": {"tested_on": "SARS-CoV-2", "type": "cell-based", "conditions": "for SARS-CoV-2 infection of permissive cells (in words): summary statement"}}, "note": "“Also recorded” adds a separate entry of the source. Read-outs that look alike come from different tables or passages of the source. Peptide text beside a SMILES is read from it.", "data": [{"compound": "NFRTKSCPLELAKELKLCS [pCTR, negative control peptide, a scrambled variant of pLF3, reference compound]", "values": [{"measurement": "inhibition of proteolytic activity of TMPRSS2 (in words)", "setting": "TMPRSS2", "result": "neither full-length LF nor pCTR inhibited; also recorded: neither full-length LF nor other tested peptides derived from LF, nor the control peptide pCTR, significantly reduced"}, {"measurement": "inhibition of proteolytic activity of plasmin (in words)", "setting": "plasmin", "result": "neither full-length LF nor a control peptide (pCTR), was able to inhibit; also recorded: neither full-length LF nor other tested peptides derived from LF, nor the control peptide pCTR, significantly reduced"}, {"measurement": "inhibition of proteolytic activity of elastase (in words)", "setting": "elastase", "result": "neither full-length LF nor other tested peptides derived from LF, nor the control peptide pCTR, significantly reduced"}, {"measurement": "cleavage of SARS-CoV-2 S protein by TMPRSS2 (in words)", "setting": "[1]", "result": "no such effect was seen"}, {"measurement": "inhibition of SARS-CoV-2 infection, Vero cells (in words)", "setting": "[2]; pre-incubation 40-60 min", "result": "did not show any inhibitory potential"}]}, {"compound": "C[S+](C)[O-]", "note": "[30% DMSO]", "values": [{"measurement": "cytotoxicity, Vero cells (in words)", "setting": "Vero cells", "result": "significantly (p***<0.0005) affected viability of Vero cells"}]}, {"compound": "aprotinin [reference compound]", "values": [{"measurement": "inhibition of proteolytic activity of TMPRSS2 (in words)", "setting": "TMPRSS2", "result": "blunted the proteolytic activity of both proteases"}, {"measurement": "inhibition of proteolytic activity of plasmin (in words)", "setting": "plasmin", "result": "blunted the proteolytic activity of both proteases"}]}, {"compound": "GRRRRSVQWCAVSQPEATKCFQWQRNMRKVRGPPVSCIKRDSPIQCIQA [LFC, natural peptide of 49 amino acids from the N-terminus of human LF, produced by pepsin cleavage]", "values": [{"measurement": "inhibition of proteolytic activity of TMPRSS2 (in words)", "setting": "TMPRSS2", "result": "inhibitory effect on TMPRSS2 comparable to that of pLF1"}, {"measurement": "inhibition of proteolytic activity of TMPRSS2 (in words)", "setting": "TMPRSS2; listed as lactoferricin", "result": "significantly inhibited"}, {"measurement": "infection rate of replication-competent SARS-CoV-2 in Vero cells (in words)", "setting": "[2]; 80 µg/mL, pre-incubation approx. 1 h", "result": "reduced the infection rate"}, {"measurement": "inhibition of SARS-CoV-2 infection in Vero and Calu-3 cells", "setting": "SARS-CoV-2; Vero and Calu-3 cells, summary statement in Discussion", "result": "40-50%"}, {"measurement": "SARS-CoV-2 infection of permissive cells (in words)", "setting": "SARS-CoV-2", "result": "inhibits cell entry of SARS-CoV-2 through blocking TMPRSS2-mediated virus priming"}, {"measurement": "SARS-CoV-2 infection of permissive cells (in words)", "setting": "SARS-CoV-2; listed as lactoferricin", "result": "significantly inhibited"}]}, {"compound": "CC(C)[C@H](NC(=O)[C@H](C)NC(=O)[C@H](CS)NC(=O)[C@H](Cc1c[nH]c2ccccc12)NC(=O)[C@H](CCC(N)=O)NC(=O)[C@@H](NC(=O)[C@H](CO)NC(=O)[C@H](CCCNC(=N)N)NC(=O)[C@H](CCCNC(=N)N)NC(=O)[C@H](CCCNC(=N)N)NC(=O)CN)C(C)C)C(=O)N[C@@H](CO)C(=O)N[C@@H](CCC(N)=O)C(=O)N1CCC[C@H]1C(=O)N[C@@H](CCC(=O)O)C(=O)N[C@@H](C)C(=O)N[C@H](C(=O)N[C@@H](CCCCN)C(=O)N[C@@H](CS)C(=O)O)[C@@H](C)O", "note": "[pLF1] (H-GRRRSVQWCAVSQPEATKC-OH)", "values": [{"measurement": "maximum inhibition of TMPRSS2 (plateau)", "setting": "TMPRSS2; at 40 - 80 µg/mL", "result": "~ 40%"}, {"measurement": "IC50", "setting": "plasmin; Figure 1B inset: plasmin 10 mU/mL coated in PBS, chromogenic substrate S-2251 0.8 mM, PBS, absorbance 405 nm, relative IC50, 4PL fit, experiments at least three times, read-out: half-maximum inhibitory concentration (IC50), plasmin (converted)", "result": 3.19, "unit": "µM"}]}]}
